Measurements published in patent US20130296370A1, “COMPOSITION COMPRISING A PHOTOACTIVATABLE LARVICIDE” (UNIVERSITA DEGLI STUDI DI PADOVA, priority 2010, published 2013).

Experiments:
[1] = Photostability of C14 porphyrin in aqueous medium; type: physicochemical; conditions: 2.5 μM in PBS; visible light 20 mW/cm^2 for up to 60 minutes
Procedure: The photostability of the C14 porphyrin was determined in phosphate-buffered saline (PBS) upon illumination of a 2.5 μM porphyrin solution (initial absorbance around 0.5 at 424 nm) with white light (400-800 nm), which was isolated from the emission of a quartz-halogen lamp equipped with broad band filters to eliminate UV and infrared radiation. The light source was supplied by Teclas (Lugano, Switzerland), and operated at a fluence rate of 20 mW/cm^2. During irradiation the porphyrin solution was kept in agitation on a magnetic stirrer at room temperature. The concentration of the porphyrin in the aqueous solution was monitored spectrophotometrically at different irradiation times up to 60 min, and the photostability was expressed as the percent residual absorbance referred to the absorbance measured before irradiation.
The stability of C14 to the effect of full spectrum visible light was studied for a 2.5 μM porphyrin solution in PBS. The exposure of the porphyrin to visible light at a fluence rate of 20 mW/cm^2 for up to 60 minutes caused a decrease in the overall absorbance of less than 10%, which involved the whole set of bands in the blue, green and red spectral region. […]

[2] = test system: 3rd-4th instar Ae. aegypti larvae; experiment: Larvicidal efficacy of C14 porphyrin (LC50); type: in vivo; conditions: 6 mg PFP
Procedure: Irradiation of mosquito larvae were performed by employing full spectrum visible light (400-800 nm) at a fluence rate of 1.0 to 4.0 mW/cm^2 using low-pressure mercury discharge fluorescent tubes TL-D Standard Colours (TL-D 58W/33-640 1SL, PHILIPS, EC). The intensity of the incident radiation was measured by an ILT1400A radiometer/photometer, equipped with a SED623/HNK15 multi-junction thermopile detector (International Light Technologies Inc., MA, USA).
All the experiments were carried out in a climatic chamber at 28±2° C. with a regulated photoperiod of 12 hours. Transparent plastic trays, containing 500 ml C14 solutions or spring water were employed. Typically, 5±1 days old, 3rd-early 4th instar Aedes aegypti larvae were used. All the experiments were replicated three times.
Mortality data were analyzed by ANOVA and LSD post-hoc tests using SPSS v. 11.0 (SPSS Inc.). LC50 values and relevant statistics were obtained by nonlinear regression of mortality data, using OriginPro v. 7.5 (OriginLab Corp.).
Trays containing C14 porphyrin solutions at 7 increasing concentrations (range 0.03-4.3 μM), or spring water as a control, were provided with 6 mg of PFP each (wherein PFP means powdered food pellet (PFP) with final particle diameter of 5-500 μm diameter obtained by crushing a standard food pellet for laboratory rodents, namely 4RF18 GLP (Mucedola Srl, Italy) using an electric blender and then sieving at mesh diameter 500 μm) and then incubated in the dark for 48 hours. Batches of 100 larvae, fasted for the previous 24 hours, were introduced into the trays at 8.00 pm (beginning of the 12 hour-long dark period in the climatic chamber). Larval mortality was evaluated on the next day at 9 am (after 1 hour irradiation), 2 pm (6 hours irradiation) and 8 pm (12 hours irradiation). An additional mortality evaluation was performed on the following day at 8.00 am, after a further overnight incubation. Larvae not moving or not showing a normally vigorous escaping response at probing were defined as dead or dying, respectively, and counted together. Pupae occasionally formed during the experiment, which never exceeded 10% of the total number of larvae, were discarded and excluded from the evaluation.
C14 solutions were incubated with 6 mg PFP at 28±2° C. in the dark for 48 hours. Larvae (3rd-4th instar, n=100, 3 replicates) were introduced 12 hours before the start of the irradiation (fluence rate: 1.0-4.0 mW/cm^2).

Aedes aegypti = experiment: Laboratory-scale tray larvicide test; type: in vivo; conditions: carrier mouse food; 70 mg per tray; loading concentration 5 μM; fluorescent lamp
Procedure: Laboratory strains of Anopheles stephensi, M and S (Kisumu), chromosomal forms of An. gambiae, An. arabiensis and Aedes aegypti, as well as field-collected Anopheles spp. and Aedes spp. larvae were used. Laboratory mosquitoes were maintained at 28-30° C., >90% RH and a photoperiod of 12 h. Light intensity ranged between 0.5 mW/cm^2 (fluorescent lamp) and 185 mW/cm^2 (sunlight).
C12 or C14 porphyrin solutions at 5-100 μM concentrations were pre-incubated at room temperature in the darkness with 15-60 mg of carrier (either Eudragit or ground mouse food or cat food) for 4-12 hours under gentle shaking. After incubation the solutions were filtered, and the loaded carrier was dried at room temperature or in an oven (45° C.).
Batches of 60-100 L2, L3 or L4 larvae were introduced into the trays after sunset (or artificial light off). Larval mortality was evaluated the next day starting from 8.00 am, and the time required to reach at least 90% mortality was recorded. Larvae not moving or not showing an escaping response at probing were defined as dead or dying, and counted together (Tables 2 and 3). Pupae occasionally formed throughout the irradiation time were discarded and excluded from the evaluation. An equal number of batches of larvae prepared in the same way were kept in continuous darkness and mortality was evaluated similarly, to assess toxicity in the dark. […]

In the case of `CCCCCCCCCCCCCC[n+]1ccc(-c2c3nc(c(-c4cc[n+](C)cc4)c4ccc([nH]4)c(-c4cc[n+](C)cc4)c4nc(c(-c5cc[n+](C)cc5)c5ccc2[nH]5)C=C4)C=C3)cc1.Cc1ccc(S(=O)(=O)[O-])cc1.Cc1ccc(S(=O)(=O)[O-])cc1.Cc1ccc(S(=O)(=O)[O-])cc1.Cc1ccc(S(=O)(=O)[O-])cc1` [C14, meso-tri(N-methyl-pyridyl), mono(N-tetradecyl-pyridyl)porphine], the “decrease in the overall absorbance” value [1] is reported as “less than 10%”, the LC50 ([2]; 12 light + 12 dark hours) is reported as 110 nM and the LC50 ([2]; 1 hour of irradiation, 1.0-4.0 mW/cm^2) is reported as 460 nM. The LC50 ([2]; 6 hours of irradiation, 1.0-4.0 mW/cm^2) was 250 nM, the LC50 ([2]; 12 hours of irradiation, 1.0-4.0 mW/cm^2) was 220 nM and the “Time to reach ≧90% mortality” value (Aedes aegypti) was 3 h.
